Data published in PubChem BioAssay AID2060895 (Molecular Pharmacology Branch, DTP, NCI, 2025).

Tested on: PDC 899932-113-R3-J6 complex spheroid viability
Experiment: Anticancer human tumor 899932-113-R3-J6-PDC patient-derived melanoma cell line growth inhibition [RAS]
Conditions: for IC50: curve of first compound; for viability, T/C: stronger effect = lower value
Method in brief: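 Multi-cell-type spheroids: tumor cells plus HUVEC endothelial cells and mesenchymal stem cells. RAS-pathway inhibitors were combined with targeted agents, each dosed in half-log steps down from clinical Cmax, or from 10 microM when Cmax was unknown.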
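For viability, T/C in this document: spheroids exposed to agents for seven days before readout; 100% = DMSO vehicle control wells.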

## Nc1ccn(C2OC(CO)C(O)C2(F)F)c(=O)n1 (centres undefined) + CCn1c(-c2cc(N3CCN(C)CC3)cnc2C(C)OC)c2c3cc(ccc31)-c1csc(n1)CC(NC(=O)C1CC1C)C(=O)N1CCCC(N1)C(=O)OCC(C)(C)C2
Second compound 0.000949 µM
  IC50: 5.85 nM
Second compound 0.003 µM
  IC50: < 3.16 nM
Second compound 0.00949 µM
  IC50: < 3.16 nM
Second compound 0.03 µM
  IC50: < 3.16 nM
Second compound 0.0949 µM
  IC50: < 3.16 nM
Second compound 0.3 µM
  IC50: < 3.16 nM
Second compound 0.000949 µM, first compound 0.00316 µM
  viability, T/C: 62.9%
Second compound 0.000949 µM, first compound 0.01 µM
  viability, T/C: 38.6%
Second compound 0.000949 µM, first compound 0.0316 µM
  viability, T/C: 19.2%
Second compound 0.000949 µM, first compound 0.1 µM
  viability, T/C: 10.9%
Second compound 0.000949 µM, first compound 0.316 µM
  viability, T/C: 10.9%
Second compound 0.000949 µM, first compound 1 µM
  viability, T/C: 12.7%
Second compound 0.003 µM, first compound 0.00316 µM
  viability, T/C: 34.1%
Second compound 0.003 µM, first compound 0.01 µM
  viability, T/C: 22.6%
Second compound 0.003 µM, first compound 0.0316 µM
  viability, T/C: 9.17%
Second compound 0.003 µM, first compound 0.1 µM
  viability, T/C: 6.99%
Second compound 0.003 µM, first compound 0.316 µM
  viability, T/C: 7.8%
Second compound 0.003 µM, first compound 1 µM
  viability, T/C: 7.27%
Second compound 0.00949 µM, first compound 0.00316 µM
  viability, T/C: 3.07%
Second compound 0.00949 µM, first compound 0.01 µM
  viability, T/C: 3.15%
Second compound 0.00949 µM, first compound 0.0316 µM
  viability, T/C: 3.74%
Second compound 0.00949 µM, first compound 0.1 µM
  viability, T/C: 3.5%
Second compound 0.00949 µM, first compound 0.316 µM
  viability, T/C: 3.59%
Second compound 0.00949 µM, first compound 1 µM
  viability, T/C: 3.95%
Second compound 0.03 µM, first compound 0.00316 µM
  viability, T/C: 2.89%
Second compound 0.03 µM, first compound 0.01 µM
  viability, T/C: 2.31%
Second compound 0.03 µM, first compound 0.0316 µM
  viability, T/C: 3.09%
Second compound 0.03 µM, first compound 0.1 µM
  viability, T/C: 3.08%
Second compound 0.03 µM, first compound 0.316 µM
  viability, T/C: 2.1%
Second compound 0.03 µM, first compound 1 µM
  viability, T/C: 2.81%
Second compound 0.0949 µM, first compound 0.00316 µM
  viability, T/C: 2.38%
Second compound 0.0949 µM, first compound 0.01 µM
  viability, T/C: 1.69%
Second compound 0.0949 µM, first compound 0.0316 µM
  viability, T/C: 2.42%
Second compound 0.0949 µM, first compound 0.1 µM
  viability, T/C: 2.17%
Second compound 0.0949 µM, first compound 0.316 µM
  viability, T/C: 1.85%
Second compound 0.0949 µM, first compound 1 µM
  viability, T/C: 2.61%
Second compound 0.3 µM, first compound 0.00316 µM
  viability, T/C: 1.86%
Second compound 0.3 µM, first compound 0.01 µM
  viability, T/C: 2%
Second compound 0.3 µM, first compound 0.0316 µM
  viability, T/C: 2.22%
Second compound 0.3 µM, first compound 0.1 µM
  viability, T/C: 2.4%
Second compound 0.3 µM, first compound 0.316 µM
  viability, T/C: 2.26%
Second compound 0.3 µM, first compound 1 µM
  viability, T/C: 1.79%

## O=C(c1ccc(F)c(F)c1Nc1ccc(I)cc1F)N1CC(O)([C@@H]2CCCCN2)C1 + C#Cc1c(F)ccc2cc(O)cc(-c3ncc4c(N5CC6CCC(C5)N6)nc(OCC56CCCN5CC(F)C6)nc4c3F)c12
Second compound 0.0316 µM
  IC50: 8.97 nM
Second compound 0.1 µM
  IC50: 10.1 nM
Second compound 0.316 µM
  IC50: 12.1 nM
Second compound 1 µM
  IC50: 10.9 nM
Second compound 3.16 µM
  IC50: 10.8 nM
Second compound 10 µM
  IC50: 9.02 nM
Second compound 0.0316 µM, first compound 0.00316 µM
  viability, T/C: 84.7%
Second compound 0.0316 µM, first compound 0.01 µM
  viability, T/C: 46.4%
Second compound 0.0316 µM, first compound 0.0316 µM
  viability, T/C: 7.85%
Second compound 0.0316 µM, first compound 0.1 µM
  viability, T/C: 3.11%
Second compound 0.0316 µM, first compound 0.316 µM
  viability, T/C: 3.11%
Second compound 0.0316 µM, first compound 1 µM
  viability, T/C: 1.68%
Second compound 0.1 µM, first compound 0.00316 µM
  viability, T/C: 70.8%
Second compound 0.1 µM, first compound 0.01 µM
  viability, T/C: 50.3%
Second compound 0.1 µM, first compound 0.0316 µM
  viability, T/C: 7.58%
Second compound 0.1 µM, first compound 0.1 µM
  viability, T/C: 3.19%
Second compound 0.1 µM, first compound 0.316 µM
  viability, T/C: 2.68%
Second compound 0.1 µM, first compound 1 µM
  viability, T/C: 1.61%
Second compound 0.316 µM, first compound 0.00316 µM
  viability, T/C: 77.1%
Second compound 0.316 µM, first compound 0.01 µM
  viability, T/C: 58.5%
Second compound 0.316 µM, first compound 0.0316 µM
  viability, T/C: 6.51%
Second compound 0.316 µM, first compound 0.1 µM
  viability, T/C: 5.25%
Second compound 0.316 µM, first compound 0.316 µM
  viability, T/C: 2.94%
Second compound 0.316 µM, first compound 1 µM
  viability, T/C: 1.38%
Second compound 1 µM, first compound 0.00316 µM
  viability, T/C: 83.2%
Second compound 1 µM, first compound 0.01 µM
  viability, T/C: 53.4%
Second compound 1 µM, first compound 0.0316 µM
  viability, T/C: 7.2%
Second compound 1 µM, first compound 0.1 µM
  viability, T/C: 3.22%
Second compound 1 µM, first compound 0.316 µM
  viability, T/C: 2.12%
Second compound 1 µM, first compound 1 µM
  viability, T/C: 2.67%
Second compound 3.16 µM, first compound 0.00316 µM
  viability, T/C: 77.6%
Second compound 3.16 µM, first compound 0.01 µM
  viability, T/C: 53.1%
Second compound 3.16 µM, first compound 0.0316 µM
  viability, T/C: 8.19%
Second compound 3.16 µM, first compound 0.1 µM
  viability, T/C: 3.45%
Second compound 3.16 µM, first compound 0.316 µM
  viability, T/C: 2.09%
Second compound 3.16 µM, first compound 1 µM
  viability, T/C: 3.3%
Second compound 10 µM, first compound 0.00316 µM
  viability, T/C: 91.4%
Second compound 10 µM, first compound 0.01 µM
  viability, T/C: 46%
Second compound 10 µM, first compound 0.0316 µM
  viability, T/C: 8.65%
Second compound 10 µM, first compound 0.1 µM
  viability, T/C: 6.24%
Second compound 10 µM, first compound 0.316 µM
  viability, T/C: 2.33%
Second compound 10 µM, first compound 1 µM
  viability, T/C: 2.35%
